System: Plasmodium falciparum
Assay: GSK_TCMDC: Inhibition of Plasmodium falciparum 3D7 in whole erythrocytes, using parasite LDH activity as an index of growth.
Type: functional, organism-based
Conditions: Plasmodium falciparum, 3D7

Compound	XC50 [nM]
O=C(Nc1ccc(-c2nc3ccccc3[nH]2)cc1)c1cccc(S(=O)(=O)N2CCCC2)c1	743
COc1ccc2ncc(C#N)c(CCN3C[C@H](CNCc4ccccc4)[C@H](O)C3)c2n1	1060
CCCCOc1ccc(CNCCCCCCNCc2ccc(OCCCC)c3ccccc23)c2ccccc12	1130
CCCNCc1ccc(-c2ccc(CN(CCOC)C(=O)CCc3ccc(OC)cc3)cc2)nc1	981
CCOC(=O)C(C)(C)Oc1ccc(CN(Cc2ccc(CC(C)C)cc2)C(=O)Nc2ccc(F)cc2F)c(OC)c1	238
COc1ccc(C2=C(Nc3ccc4oc5ccccc5c4c3)c3ccccc3C2=O)cc1	830
COc1ccc(CC(Cc2ccc(OC)cc2)NCC(O)c2cccc(Cl)c2)cc1 (stereo not given)	155
CC(C)[C@H](NC(=O)c1ccc(O)c(-c2cccc(C(F)(F)F)c2)c1)C(=O)NC1CCCc2ccccc21 (stereo not given in full)	930
COc1ccc(NC(=O)/C=C/c2ccccc2Cl)cc1OCCN1CCN(c2ccncc2)CC1	728
COc1ccc(CCNCCCCCCNCCc2ccc(OC)c(OC)c2Cl)c(Cl)c1OC	904
O=C(NCc1ccccc1[S+]([O-])c1ccccc1CO)C(F)(F)F (stereo not given)	184
CN1CCC(c2cc3c(cc2Br)CCN3C(=O)Nc2ccc(-c3ccncc3)c(Cl)c2)CC1	1010
CCCC(=O)Nc1ccc(OCCCN(Cc2ccccc2F)c2ccc(C#N)c(C(F)(F)F)c2)cc1	595
Cc1cccc(CN2CCC(C(=O)Nc3ccc(-c4nc5ccccc5[nH]4)cc3)CC2)n1	919
CC(NC(=O)c1ccc(O)c(-c2ccc(Cl)c(Cl)c2)c1)C(=O)NCCN1CCCCC1 (stereo not given)	868
C=CCOC(=O)N1CCC(CNCc2cccc(-c3ccc(-c4nc5cccc(C)c5[nH]4)cc3)c2)C1 (stereo not given)	251
COCCN(C(=O)Cc1cccs1)C(C(=O)NCc1ccc(OC)cc1)c1ccc(C(C)C)cc1 (stereo not given)	845
COCCNCc1cccc(-c2cccc(CN(C(=O)Nc3ccccc3)C3CCN(Cc4ccccc4)CC3)c2)c1	126
c1cncc(Oc2ccc(Nc3ccnc4cc(-c5cccc(CN6CCOCC6)c5)ccc34)cc2)c1	305
COc1ccccc1CNC(=O)c1cc(OC)c(OC)cc1NC(=O)c1cccs1	1440
O=C(Nc1ccc(C2=NC3CCCCC3N2)cc1)Nc1ccc(C2=NC3CCCCC3N2)cc1 (stereo not given)	179
CCOC(=O)C(=CNc1ccc(Cc2cnc(N)nc2N)cc1CC)C(=O)OCC	1140
Cc1cc(NCCc2ccccc2)nc(NC(=N)Nc2ccc(Cl)cc2)n1	232
Cc1ccc2nc(-c3ccc(C(=O)NC4CCN(Cc5ccccc5)CC4)s3)[nH]c2c1	1010

Compound	XC50 [nM]
COc1ccc(CN(C)CCCOc2ccc(NC(=O)C=Cc3ccc(C(C)(C)C)cc3)cc2)cc1OC	855
COc1ccc(CNC(=O)c2cnc3cc(-c4c(C)noc4C)ccc3c2Nc2ccccc2C(C)(C)C)cc1	1300
Cc1nc(C(=O)N2CCCC[C@H]2CNC(=O)c2ccc(-c3ccc(N4CCCC4=O)cc3C)cc2)c(-c2ccc(F)cc2)s1	459
CN(C)CCCNc1ccnc2cc(Cl)ccc12	283
O=C(C=Cc1ccc(Cl)c(Cl)c1)NCCCCCN1CCC(CCNC(=O)c2cccc3ccccc23)CC1	1590
NCC1CCCN1Cc1ccc(-c2ccc(-c3nc4ccccc4[nH]3)s2)cc1 (stereo not given)	934
Cc1cc(N[C@@H](Cc2ccccc2)C(=O)NCc2cccc(F)c2)nc(NCC2CCCCC2)n1	855
Cc1c(Oc2ccc(-n3ccnc3)cc2)ncnc1N1CCC2(CC1)CNCc1ccccc12	887
COc1cc(NC(=O)/C=C/c2ccccc2OC(F)(F)F)cc(OCCN2CCC(O)(c3ccccc3)CC2)c1	285
CCCCN1CCCN(Cc2cccc(NC(=O)c3ccc(-c4ccccc4)cc3)c2)CC1	1030
Oc1ccc(-c2nc(-c3ccc4oc5ccc(-c6[nH]c(-c7ccc(O)cc7)nc6-c6ccccc6)cc5c4c3)c(-c3ccccc3)[nH]2)cc1	1110
Cc1noc(-c2ccccc2)c1NC(=O)N1CCN(CCCCCCNC(=O)/C=C/c2ccc(Cl)c(Cl)c2)CC1	884
Cc1cc(NCC2CCN(CC3CCCCC3)C2)nc(Nc2ccc(Cl)cc2)n1 (stereo not given)	739
CCn1c(C2CCN(CCC3CCN(C(=O)/C=C/c4ccc(Cl)c(Cl)c4)CC3)CC2)nc2ccccc21	1080
CCOC(=O)c1ccc(NC(=O)Nc2cccc(-c3ccc(-c4nc5ccccc5[nH]4)cc3)c2)cc1	212
COc1ccc(Nc2nc(N/N=C/c3ccc(-c4ccc([N+](=O)[O-])cc4)o3)nc(Nc3ccccc3)n2)cc1	761
CCN(CCNS(C)(=O)=O)c1ccc(N)c(C)c1	875
COc1cc(CNC[C@@H](O)[C@H](Cc2ccccc2)NC(=O)c2cc(C3CCCC3)cc(N3CCCC3=O)c2)cc(OC)c1	224
O=C(NC1CCN(c2ncc(C(F)(F)F)cc2Cl)CC1)c1cccs1	897
COc1ccc(O)cc1Cc1cnc2nc(N)nc(N)c2c1C	8.25
CNCc1ccc(CN(C)c2nc(N)c3cc(OC)c(OC)cc3n2)cc1	1030
COc1cc2c(Nc3ccc(Br)cc3F)ncnc2cc1OCC1CCN(C)CC1	770
COC(=O)c1ccc(CC(C)NCC(O)c2cccc(C(F)(F)F)c2)cc1F (stereo not given)	1060
O=C(CC1SC(N2N=C(c3cccs3)CC2c2ccccc2)=NC1=O)Nc1ccc(Cl)cc1 (stereo not given)	1680

Compound	XC50 [nM]
CC(C)(c1ccccc1)c1ccc(O)c(CN2CCOCC2)c1	984
C=C[C@]1(C)C[C@@H](OC(=O)NC(=O)C2CCN(C(=O)CSc3ccccc3)CC2)[C@]2(C)[C@H](C)CC[C@]3(CCC(=O)[C@H]32)[C@@H](C)[C@@H]1O	1010
O=C(/C=C/c1ccc(Cl)c(Cl)c1)NCCCCCN1CCCC(c2c[nH]c3ccccc23)C1 (stereo not given)	812
CCCOc1ccc(CCCON2C(N)=NC(N)=NC2(C)C)cc1	3.2
CC[C@H]1CN2CC[C@H]1C[C@H]2[C@H](O)c1ccnc2ccc(OC)cc12	154
O=S(=O)(c1cc(Cl)c(Cl)cc1Cl)N1CCCCC(c2ccc(C(F)(F)F)cc2)=N1	205
CCOCCCn1c(=N)c(C(=O)NCc2ccc(OC)cc2)cc2c(=O)n3cccc(C)c3nc21	1060
Cc1ccc(C(NC(=O)c2ccccc2)c2ccc3cccnc3c2O)cc1 (stereo not given)	961
O=C(Nc1ccc(OC2CCN(Cc3ccc(F)cc3)CC2)c(Cl)c1)c1ccoc1	1180
Cc1ccc(NC(=O)N2CCCN(CCCCCNC(=O)/C=C/c3ccc(Cl)c(Cl)c3)CC2)cc1	758
CCN(CCCN1CCCCC1)c1cc(C)nc(Nc2ccc(C)c(F)c2)n1	273
CCCCCCCN(Cc1ccc(OC(C)(C)C(=O)OCC)cc1)C(=O)Nc1ccc(Cl)cc1OCC	817
c1ccn2c(-c3ncnc(NCc4ccc5c(c4)CCO5)n3)cnc2c1	1190
CC(C)(C)CCN1CCC(CNC(=O)c2cc(-c3cccc(Cl)c3)cs2)C1 (stereo not given)	819
CNCCNC(=O)C1Cc2c([nH]c3c(C)cccc23)C(c2ccc(Cl)c(Cl)c2)N1 (stereo not given)	716
Cc1nn(-c2ccnc3cc(Cl)ccc23)c(C)c1C(=O)NCc1cc(Cl)cc(Cl)c1	869
CN(CCN1CCCC1)c1nc2cc(-n3cnc4cc(-c5ccc(Cl)cc5)sc4c3=O)ccc2[nH]1	824
CCCCCCN1CCC(NCc2cccc3ccccc23)CC1	811
CC[C@H]1CN2CC[C@H]1C[C@@H]2[C@@H](O)c1ccnc2ccc(OC)cc12	119
COc1ccc2nccc([C@@H](O)CN3CCC(NC(=O)/C=C/c4c[nH]c5c(C)cccc45)CC3)c2c1	135
CCC(C)NS(=O)(=O)c1ccc2nc(Nc3ccc(C)c(Cl)c3)n([C@H](C)C(C)(C)C)c2c1 (stereo not given in full)	381
c1cc(-c2ccc(CNCCc3ccncc3)cc2)cc(-c2nc3ccccc3[nH]2)c1	139
Cc1ccc(N2C(=O)C3C(C2=O)C2(c4ccccc4)C(=O)C3(c3ccccc3)C(c3ccccc3)=C2c2ccccc2)c(C)c1 (stereo not given)	529
FC(F)(F)c1ccc2[nH]c(-c3ccc(-c4cccc(CN5CCC(CCN6CCCCC6)CC5)c4)cc3)nc2c1	153

Compound	XC50 [nM]
COCCNCc1cccc(-c2cccc(CNC3CCN(Cc4ccccc4)CC3)c2)c1	283
CCCCOc1c(CCNCCCCNCCc2cc(OC)c3ccccc3c2OCCCC)cc(OC)c2ccccc12	925
COC(=O)C(C)(C)Cc1c(SC(C)(C)C)c2cc(C(C)C)ccc2n1Cc1ccc(Cl)cc1	849
Cc1c(Cc2ccccc2Br)cnc2nc(N)nc(N)c12	4.62
CCCNC(=O)c1ccnc(-c2ccc(CNC3Cc4ccccc4C3)cc2)c1	940
O=c1cc(NCCCNC2CCOc3c(Cl)cc(Cl)cc32)[nH]c2ccccc12 (stereo not given)	724
c1ccc2[nH]c(-c3ccc(-c4ccc(CNCC5CCCO5)cc4)s3)nc2c1 (stereo not given)	869
O=C(c1cc2nc3c(c(C(F)(F)F)n2n1)CCc1ccccc1-3)N1CCN2CCCC2C1 (stereo not given)	947
CNC(=O)c1cc(S(=O)(=O)N2CCN(c3ccccn3)CC2)c(C)s1	1160
N#CN1CC[C@@H](NS(=O)(=O)Cc2ccc(Cl)c(Cl)c2)C1	532
CCCN(Cc1nnc(-c2ccco2)o1)C(=O)C1CCN(c2ncc(C(F)(F)F)cc2Cl)CC1	691
Cc1sc2ccc(Cl)cc2c1S(=O)(=O)Nc1ccc2nccc(N3CC(C)NC(C)C3)c2c1 (stereo not given)	114
NCCCCNc1cc(-c2ccnc(Nc3cccc(Cl)c3)n2)ccn1	284
Cc1cccc2nc(-c3cccc(-c4ccc(C(=O)NCc5nccn5C)cc4)c3)[nH]c12	1320
Cc1ccc(-c2noc(COc3ccccc3C(=O)NC3CCCC3)n2)cc1	882
CCN(CCN(C)C)Cc1ccc(-c2ccc(NS(=O)(=O)c3cccc4cccnc34)cc2)cc1	931
Cc1ccc(C(=O)Nc2ccc(OC3CCN(CCC(C)C)C3)c(Cl)c2)cc1 (stereo not given)	991
CCOc1ccc2c(=NN=Cc3ccccn3)cc(C)[nH]c2c1	862
NC(=O)c1ccc(NCC(=O)Nc2cccc(-c3cccc(-c4nc5cc(F)ccc5[nH]4)c3)c2)cc1	867
COc1ccc(CNCc2ccsc2)cc1-c1ccc(S(=O)(=O)NCCN2CCCC2)s1	766
COc1cccc(NC(=O)c2ccc(NCCCN3CC(C)CC(C)C3)c([N+](=O)[O-])c2)c1 (stereo not given)	721
O=C(/C=C/c1ccc(Cl)c(Cl)c1)NCCCCCN1CCN(C(=O)Nc2ccc(C(F)(F)F)cc2)CC1	721
COc1cc(CN2CCN(c3ccnc(N(C)C4CCN(C)CC4)n3)CC2)cc(Cl)c1O	784
